Test results as given in US6921824B1, “Ruthenium dimeric complexes suitable as antimetastatic and antineoplastic agents” (priority 1999, dated 2005).

Experiment: Solubility in water (remark in preparation)
Assay type: physicochemical

- Solubility in water: not very soluble in water
Substance: [K]2[trans-RuCl4(Me2SO)]2(μ-pyz) [Example 6]
